Reference: patent US7232646B2, “Low-viscous, radiation curable formulation, particularly for the stereo-lithographical production of earpiece” (Dreve-Otoplastik GmbH, priority 2003, dated 2007)

Assay: Window pane method for critical energy Ec and laser penetration depth Dp
Type: physicochemical
Settings: inhibitor added to resin formulation; for influence of inhibitor concentration on laser penetration depth Dp: FIGS. 1 and 3; for influence of inhibitor concentration on critical energy Ec: FIGS. 2 and 4
Description: Into the mixture according to the invention, 2,2,6,6-tetramethylpiperdine-1-yloxy (free radical) is added. The influence of the concentration of the 2,2,6,6-tetramethylpiperdine-1-yloxy (free radical) in the exemplary formalation 1 upon the penetration depth of the laser beam and energy has been shown in FIGS. 1 and 2. The laser penetration depth and the critical energy are determined by means of the window pane method described by P. F. Jacobs and D. R. Read in Rapid Prototyping and Manufacturing of the Society of Manufacturing Engineers, Dearborn, Mich. (1992), 1st, ed., pgs. 263-280. […] This influence of the inhibitor 2,2,6,6-tetramethylpiperdine-1-yloxy (free radical) upon the relevant parameters Ec (critical energy in mJ cm^−2) and Dp (laser penetration depth in mils) of the stereolithographic resin, the effect differing from the influence of the inhibitors like, for example, hydroquinone-monomethylether which are added to stereolithographic resins in accordance with the state of the art. The influence of the hydroquinonemonomethylether on the parameters Ec and Dp in the exemplary formulations 2 is shown in FIGS. 3 and 4.
The relevant parameters for the use of the above mentioned resins in stereolithography are collected in Table 1. All viscosity measurements were carried out at 23° C. with a CVO 120 rheometer of Bohlin Instruments. The determination of the bend strength, the modulus of elasticity and the elongation were carried out in accordance with EN ISO 178 (1996) with a Zwick 1—test machine of the Zwick firm. For the determination of the Ec and Dp values by means of the above mentioned window pane method, the average value from 10 window pane sample bodies was determined. The sample bodies were produced with a Viper Si^2 SLA apparatus equipped with an ND:YVO4 solid body laser. The green bodies were after hardened with a stroboscope lighting unit Sonolux PR from Innovation Meditech by means of 4000 flashes.

| Structure (SMILES) | influence of inhibitor concentration on laser penetration depth Dp | influence of inhibitor concentration on critical energy Ec |
| --- | --- | --- |
| CC1(C)CCCC(C)(C)N1[O] [2,2,6,6-tetramethylpiperdine-1-yloxy (free radical)] | only a limited change in the penetration depth | surprising increase in the critical energy |
| COc1ccc(O)cc1 [hydroauinonemonomethylether, hydroquinone-monomethylether] | greater than in the case of the use of the 2,2,6,6-tetramethyl piperdine-1-yloxy (free radical) | can only be adjusted by significantly higher concentrations |
